Earlier results as cited in patent publication US20210024636A1, “COMPOSITIONS AND METHODS FOR TREATING SEXUAL DYSFUNCTION” (ChemistryRX, priority 2019, published 2021).

Experiments:
[1] = tested on: T-cell adhesion to ICAM-1; conditions: human T-cell line, in vitro
[2] = tested on: human peripheral blood mononuclear cells; conditions: in vitro

Structure (SMILES): CS(=O)(=O)c1cccc(C[C@H](NC(=O)c2c(Cl)cc3c(c2Cl)CCN(C(=O)c2ccc4ccoc4c2)C3)C(=O)O)c1 [lifitegrast]
- inhibition of T-cell adhesion to ICAM-1 [1]: may inhibit T-cell adhesion to ICAM-1
- inhibition of secretion of inflammatory cytokines [2]: may inhibit secretion of inflammatory cytokines
